The results in this text go back to article PMC11751314, “Engineering of acyl ligase domain in non-ribosomal peptide synthetases to change fatty acid moieties of lipopeptides” (Communications Chemistry, 2025).

Test [1] concerns the target T1, ItuAL_WT-MycACP (ituAL-ACP1) (Bacillus subtilis, UniProt Q93I56).
T1 construct: gene ituA; N-terminally His-tagged fusion of ItuAL (584 aa, RB14) with adjacent MycACP (ATCC6633); pET28a, E. coli BL21-AI; ACP in apo-form; catalytic pocket lies wholly in ItuAL; with Mycosubtilin synthase subunit A, first acyl carrier protein domain
T1 sequence (Q93I56 1-584): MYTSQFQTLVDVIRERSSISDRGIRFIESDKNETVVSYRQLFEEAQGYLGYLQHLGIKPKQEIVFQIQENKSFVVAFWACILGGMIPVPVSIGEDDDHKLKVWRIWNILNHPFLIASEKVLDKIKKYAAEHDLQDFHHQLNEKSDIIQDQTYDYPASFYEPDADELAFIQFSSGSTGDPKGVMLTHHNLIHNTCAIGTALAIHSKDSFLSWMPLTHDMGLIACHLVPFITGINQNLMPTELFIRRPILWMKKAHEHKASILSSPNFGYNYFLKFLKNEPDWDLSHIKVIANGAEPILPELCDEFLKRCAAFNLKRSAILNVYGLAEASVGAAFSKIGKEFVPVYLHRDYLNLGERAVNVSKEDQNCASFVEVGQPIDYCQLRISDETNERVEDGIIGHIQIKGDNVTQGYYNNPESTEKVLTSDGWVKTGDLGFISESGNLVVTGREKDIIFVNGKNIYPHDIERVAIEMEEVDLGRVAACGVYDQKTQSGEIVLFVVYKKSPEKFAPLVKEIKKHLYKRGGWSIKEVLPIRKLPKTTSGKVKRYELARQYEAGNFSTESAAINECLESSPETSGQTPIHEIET
T1 sequence (Q9R9J1 586-668 partner limits assumed): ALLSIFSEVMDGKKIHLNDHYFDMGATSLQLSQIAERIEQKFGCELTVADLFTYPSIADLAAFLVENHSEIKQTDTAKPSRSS
Briefly: HPLC of fatty acyl-AMP formed ([…] nm). It is filed as biochemical. The settings on record: 1 mM fatty acid, 1 mM ATP, 50 mM MgCl2, 50 mM HEPES pH 7.5, 0.01% Brij35, 30% DMSO, 30 °C, 30 min; 10 μM enzyme, apo-ACP.

Another test concerns the target T2, (ituAL-ACP1) (Bacillus subtilis, UniProt Q93I56, F208G).
T2 construct: gene ituA; N-terminally His-tagged fusion of ItuAL (584 aa, RB14) with adjacent MycACP (ATCC6633); pET28a, E. coli BL21-AI; ACP in apo-form; catalytic pocket lies wholly in ItuAL; with Mycosubtilin synthase subunit A, first acyl carrier protein domain
Briefly: HPLC of fatty acyl-AMP formed ([…] nm). It is filed as biochemical. The settings on record: 1 mM fatty acid, 1 mM ATP, 50 mM MgCl2, 50 mM HEPES pH 7.5, 0.01% Brij35, 30% DMSO, 30 °C, 30 min; 10 μM enzyme, apo-ACP.

Each structure is given as a SMILES string.

T2 sequence (Q93I56 entry or part of it F208G, one chain of several): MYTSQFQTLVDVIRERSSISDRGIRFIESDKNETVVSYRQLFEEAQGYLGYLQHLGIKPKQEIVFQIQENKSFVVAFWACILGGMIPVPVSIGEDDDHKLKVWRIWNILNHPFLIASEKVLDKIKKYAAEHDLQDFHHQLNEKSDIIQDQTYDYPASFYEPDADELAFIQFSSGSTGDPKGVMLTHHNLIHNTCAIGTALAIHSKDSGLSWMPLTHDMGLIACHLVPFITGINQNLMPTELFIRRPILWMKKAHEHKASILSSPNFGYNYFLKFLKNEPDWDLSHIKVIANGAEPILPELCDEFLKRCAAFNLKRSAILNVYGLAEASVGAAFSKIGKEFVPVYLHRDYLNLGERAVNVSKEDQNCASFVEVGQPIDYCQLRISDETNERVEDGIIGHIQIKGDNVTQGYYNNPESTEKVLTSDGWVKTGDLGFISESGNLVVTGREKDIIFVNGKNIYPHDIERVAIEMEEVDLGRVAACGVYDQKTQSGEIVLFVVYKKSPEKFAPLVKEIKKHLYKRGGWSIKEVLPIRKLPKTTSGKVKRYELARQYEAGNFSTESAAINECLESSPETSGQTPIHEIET

For the compound `CCCCCCCCCCCC(=O)O` [C12, lauric acid], in test [1], the “relative activity (C10 = 100%)” value is “ItuAL_WT exhibited the highest activity against lauric acid (C12)”. `CCCCCCCCCCCCCCC(=O)O` [C15, pentadecanoic acid]: the “relative activity (C10 = 100%)” value at (ituAL-ACP1) is given as “ItuAL_F208G exhibited the highest activity against pentadecanoic acid (C15)”.
